# Reference: ChEMBL document CHEMBL1158885, “A new sesquiterpenoid quinone and other related compounds from the Okinawan marine sponge Dactylospongia elegans” (J Nat Prod, 2003)
# pIC50: −log10 of the molar value.
# System: HeLa
# Experiment: Cytotoxicity against human HeLa cells
# Type: functional, cell-based
structure (smiles),measurement,value
C=C1CCC[C@H]2[C@]3(C)OC4=C(C[C@]3(C)CC[C@]12C)C(=O)C(OC)=CC4=O [NEODACTYLOQUINONE],pIC50,4.07
